One series has as its system JNK1 and JNK2. In kind it is cell-based, human. The following applies: K562.
For series [1], the system named is Jurkat cells. In kind it is cell-based, human. The following applies: 200 μM.
The test system of a further series is K562 cells. The series can be described thus: Apoptosis in K562 cells, cytospin and staining. The following applies: K562, 200 μM 1 hour, then PBOX-6 10 μM 16 hours. In kind it is cell-based, human.
In series [2] the test system is Jurkat cells. In kind it is cell-based, human. The following applies: 200 μM. As for the experimental part:
This assay was set up as described by Kohn et al., 1976 with the following modifications.
Cells were seeded at 0.4×10^6 cells/ml and were in the logarithmic phase of growth. […] Cells harvested for the experiments were at a density of 2×10^6 cells/ml.
Cells (1×10^6) were labelled with [^3H] thymidine (sp. act. 2 Ci/mmol) (0.2 μCi/ml) and 1 μM unlabelled thymidine, and incubated for 20 hr. Cells were harvested by centrifugation at 500×g for 5 mins following by two washes in PBS and the pellet was resuspended in 3 ml of PBS. Cells were aliquoted into 1 ml amounts in a 24 well plate and allowed to recover for 1 hr at 37° C. before treating with indicated compounds. Following treatment, cells were washed once in PBS and resuspended in 250 μl of PBS. An aliquot of cells (200 μl) was loaded directly onto a 25 mm diameter glass fiber filter, pore size of 0.2 μM. The cells were lysed on the filter by the addition of 5 ml lysis buffer (2% (w/v) SDS, 10 mM disodium EDTA (pH 10) supplemented with 0.5 mg/ml proteinase K. The lysis buffer was allowed to flow slowly through the filter without suction. Filters were washed using 3 ml wash solution (0.02M Na3EDTA pH 10) allowing it to flow without suction. Filters were eluted in the dark with an alkaline solution (0.04M EDTA plus tetrapropylammonium hydroxide (10% in H2O ) added in the amount required to give pH 12.1). The elution apparatus consisted of a filter funnel with output tubing passing through a peristaltic pump to a collector. Elution took place overnight at a flow rate of 0.05 ml/min. Following elution, filters were treated with 0.4 ml HCl (1N) for 1 hr at 70° C. followed by 2.5 ml NaOH (0.4N) for 30 min at room temp. Scintillation fluid (10 ml) was added and radioactivity remaining on the filters was determined by scintillation counting.
This is another data set of the same source.

For series [3], the target named is T1, peripheral-type benzodiazepine receptor (PBR) (Homo sapiens, UniProt P30536).
T1 construct: Cell homogenates (50 μg protein) were incubated with 0.5-50 nM [^3H]; PK 11195; endogenous in cells; host or cells: HL-60 cell homogenate
The series can be described thus: Radioligand binding assay, inhibition of [^3H]PK 11195 binding to HL-60 homogenates. As for the experimental part: HL-60 cells were harvested by centrifugation at 600 g for 5 min and washing in phosphate-buffered saline. The resulting cell pellet was homogenised in 50 mM Tris/HCl buffer, pH 7.4 (2 ml), using an Ultraturrax homogeniser (10 sec) and then passed 5 times through a 21 gauge needle. Cell homogenates (50 μg protein) were incubated with 0.5-50 nM [^3H] PK 11195 in 50 mM Tris/HCl buffer, pH 7.4 (incubation buffer), in a total volume of 0.5 ml on ice. Total and non-specific/non-saturable binding in each case was determined in the absence and presence of 10 μM unlabelled PK 11195 respectively. All samples were incubated in triplicate for 60 min. The incubation mixtures were then filtered and counted as previously described (O'Beirne, et al., 1988). When testing the potency of a compound to inhibit [^3H] PK 11195 binding, samples were incubated with 2 nM [3H] PK 11195 and various concentrations (0.1 nM to 1 μM) of compound and subsequently treated exactly as above. The resulting Ki values were then generated by the use of the computer programs EBDA and LIGAND.
The amount of radioactivity bound in the presence of the displacer was expressed as a percentage of control bonding and the values represent the mean±SEM of triplicate determinations from one representative experiment performed at least twice. The Ki values were obtained as described in Methods section.

Series [4] has as its system PARP (poly ADP-ribose polymerase). The series can be described thus: Western blot of PARP cleavage in Hela cells. In kind it is cell-based, human. As for the experimental part:
CML cells were seeded at 2×10^6 cells in 5 mls of growth medium, and treated with 10 μM PBOX-6 for 16 and 24 hr. Hela cells were seeded at 1×10^6 cells per 25 cm^2 flask. Following a 24 hour incubation, the cells were treated with PBOX-3 for a further 48 hours and the cells were scraped up. Cells were then centrifuged at 500 g for 5 min, the supernatant was removed and the pellet was resuspended in 200 μl of PARP sample buffer (62.5 mM Tris/HCl pH 6.8, 6 M urea, 10% (w/v) glycerol, 2% (w/v) SDS, 0.00125% bromophenol blue, and 5% (v/v) β-mercaptoethanol was added immediately before use). Samples were sonicated for 15 sec before aliquoting into 15 μl volumes. Samples were stored at −20° C. until use. 10-15 μl of thawed samples were resolved directly on a 10% polyacrylamide gel and transferred onto PVDF membrane at room temperature using wet transfer apparatus. After transfer, the membrane was blocked overnight in PBS containing 5% dry milk (Marvel). After blocking, the membrane was washed in PBST for 2×2 minutes before incubating for 1 hr with anti-PARP antibody (2 μg/ml in PBST containing 1% dry milk). Following incubation the membrane was washed for 20 minutes in PBST and incubated with goat anti mouse HRP conjugated secondary antibody (1:1000 dilution in PBST containing 1% dry milk). After washing in PBST for 30 minutes, ECL was used to visualise the proteins. […]

A further series relates to HL-60 cells. Kind of series: Apoptosis in HL-60 cells, cytospin and Rapi-Diff staining.

T1 sequence (P30536 whole entry): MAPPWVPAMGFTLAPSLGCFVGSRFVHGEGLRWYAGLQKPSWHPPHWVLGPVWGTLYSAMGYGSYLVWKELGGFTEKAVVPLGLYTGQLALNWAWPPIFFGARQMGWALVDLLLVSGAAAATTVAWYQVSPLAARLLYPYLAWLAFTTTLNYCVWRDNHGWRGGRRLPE

`C[C@@H](CN1CC(=O)NC(=O)C1)N1CC(=O)NC(=O)C1` [ICRF 187, reference compound]: the “effect of Topo II inhibitor pretreatment on PBOX-6 induced JNK activation” value in the series on JNK1 and JNK2 was “failed to prevent against PBOX-6 induced activation of JNK”. The “effect of pretreatment on etoposide induced apoptosis” value in the series with Jurkat cells [1] is reported as “inhibited apoptosis induced by etoposide”. Further, the “effect of pretreatment on PBOX-6 induced apoptosis” value in the series with K562 cells is on record as “reduced but did not completely inhibit”. For the same compound, the “effect of pretreatment on etoposide induced DNA strand breaks” value in the series with Jurkat cells [2] was “prevented etoposide induced DNA strand breaks”.
For the compound `CC(=O)OC1=C(c2ccccc2)Oc2cc3ccccc3cc2-n2cccc21` [PBOX-3, 4-Acetoxy-5-phenylnaphto[2,3-b]pyrrolo[1,2-d][1,4]oxazepine], the affinity in series [3] corresponds to a Ki of 6 ± 1.9 nM. The PARP cleavage result in series [4] was “induced PARP cleavage”. Also, in the series on HL-60 cells (HL-60 cells, 10 μM, 16 hours), the degree of necrosis entry was “negligible”. For the same compound, the cytotoxicity at 10 µM with HL-60 cells (Homo sapiens, HL-60, 16 h, read-out: % Apoptosis) stood at 23.5 ± 2.1%.

Values taken from patent US6806267B1, “Apoptosis-inducing compounds” (priority 1998, dated 2004).
